# Values of other authors as cited in US6124282A (priority 1998, dated 2000).
# Key:
# [1] = system: extensive metabolisers (EMs) and poor metabolisers (PMs); conditions: PMs and EMs pretreated with quinidine; cited from earlier work
# [2] = system: extensive metabolizers (EMs); conditions: inhibiting CYP2D6 (EMs converted into PMs); cited from earlier work
# [3] = oral; urine; cited from earlier work
smiles,measurement,setting,value
COc1ccc2c3c1O[C@H]1[C@@H](O)C=C[C@H]4[C@@H](C2)N(C)CC[C@@]341 [codeine],codeine analgesia,[1],impaired in PMs as well as in EMs
same,codeine consumption,[2],significantly decreases codeine consumption
same,excreted unchanged,[3],About 4%
